Test results taken from US7416848B2, “DNA encoding SNORF25 receptor” (H. Lundbeck A/S, priority 1999, dated 2008).

Legend:
SNORF25 receptor [1] = target: T1, SNORF25 receptor (UniProt Q7TQN8); assay: cAMP release in Cos-7 cells transiently transfected with SNORF25; format: cell-based; details: SNORF25 transiently transfected Cos-7 cells (FIG. 8)
T1 construct: Emax of cAMP response
T1 sequence (Q7TQN8 1-468): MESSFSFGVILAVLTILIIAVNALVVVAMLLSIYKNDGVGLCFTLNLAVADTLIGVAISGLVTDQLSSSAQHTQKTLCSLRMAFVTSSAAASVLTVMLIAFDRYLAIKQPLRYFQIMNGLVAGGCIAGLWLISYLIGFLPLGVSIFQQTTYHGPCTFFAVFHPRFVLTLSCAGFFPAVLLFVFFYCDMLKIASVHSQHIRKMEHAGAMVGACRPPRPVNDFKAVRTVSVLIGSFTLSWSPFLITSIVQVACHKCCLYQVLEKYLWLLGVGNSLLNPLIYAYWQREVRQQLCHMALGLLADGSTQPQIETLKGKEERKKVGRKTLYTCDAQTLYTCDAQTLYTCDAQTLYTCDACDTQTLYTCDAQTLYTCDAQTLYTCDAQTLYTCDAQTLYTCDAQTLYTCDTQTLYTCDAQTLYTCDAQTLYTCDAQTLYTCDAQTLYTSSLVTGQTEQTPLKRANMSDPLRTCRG
Experimental: COS-7 cells are grown on 150 mm plates in DMEM with supplements (Dulbecco's Modified Eagle Medium with 10% bovine calf serum, 4 mM glutamine, 100 units/ml penicillin/100 μg/ml streptomycin) at 37° C., 5% CO2. Stock plates of COS-7 cells are trypsinized and split 1:6 every 3–4 days.
A typical protocol for the electroporation method as applied to Cos-7 cells is described as follows. Cells to be used for transfection are split 24 hours prior to the transfection to provide flasks which are subconfluent at the time of transfection. The cells are harvested by trypsinization resuspended in their growth media and counted. 5×10^6 cells are suspended in 300 μl of DMEM and placed into an electroporation cuvette. 8 μg of receptor DNA plus 8 μg of any additional DNA needed (e.g. G protein expression vector, reporter construct, antibiotic resistance marker, mock vector, etc.) is added to the cell suspension, the cuvette is placed into a BioRad Gene Pulser and subjected to an electrical pulse (Gene Pulser settings: 0.25 kV voltage, 950 μF capacitance). […]
The receptor-mediated stimulation or inhibition of cyclic AMP (cAMP) formation may be assayed in cells expressing the receptors. […] The plates are stored at 4° C. for 15 min, and the cAMP content in the stopping solution is measured by radioimmunoassay. Radioactivity may be quantified using a gamma counter equipped with data reduction software. […]

SNORF25 receptor [2] = target: T2, SNORF25 receptor (Rattus norvegicus, UniProt Q7TQN8); assay: IP release in SNORF25-transfected CHO cells; format: cell-based
T2 construct: the entire coding region was amplified from Rin14b cell line cDNA and rat genomic DNA; expressed in transfected cells; host or cells: CHO cells, transient (electroporation)
T2 sequence (Q7TQN8 with tags, fused parts or gaps limits assumed): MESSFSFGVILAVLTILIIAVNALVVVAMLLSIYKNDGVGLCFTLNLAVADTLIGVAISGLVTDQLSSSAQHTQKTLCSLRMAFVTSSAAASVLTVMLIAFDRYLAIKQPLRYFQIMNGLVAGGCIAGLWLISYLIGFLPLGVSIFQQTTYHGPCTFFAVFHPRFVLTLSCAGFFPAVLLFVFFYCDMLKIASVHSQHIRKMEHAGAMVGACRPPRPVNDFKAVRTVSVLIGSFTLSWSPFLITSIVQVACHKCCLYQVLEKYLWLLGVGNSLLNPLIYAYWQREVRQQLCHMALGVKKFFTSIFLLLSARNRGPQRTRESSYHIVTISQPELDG
Experimental: In a 96 well microplate format assay, cells are plated at a density of 70,000 cells per well and allowed to incubate for 24 hours. The cells are then labeled with 0.5 μCi [^3H]-myo-inositol overnight at 37° C., 5% CO2. Immediately before the assay, the medium is removed and replaced with 90 μL of PBS containing 10 mM LiCl. The plates are then incubated for 15 min at 37° C., 5% CO2. Following the incubation, the cells are challenged with agonist (10 μl/well; 10× concentration) for 30 min at 37° C., 5% CO2. The challenge is terminated by the addition of 100 μL of 50% v/v trichloroacetic acid, followed by incubation at 4° C. for greater than 30 minutes. Total IPs are isolated from the lysate by ion exchange chromatography. Briefly, the lysed contents of the wells are transferred to a Multiscreen HV filter plate (Millipore) containing Dowex AG1-X8 (200–400 mesh, formate form). The filter plates are prepared adding 100 μL of Dowex AG1-X8 suspension (50% v/v, water: resin) to each well. The filter plates are placed on a vacuum manifold to wash or elute the resin bed. Each well is first washed 2 times with 200 μl of 5 mM myo-inositol. Total [^3H]inositol phosphates are eluted with 75 μl of 1.2M ammonium formate/0.1M formic acid solution into 96-well plates. 200 μL of scintillation cocktail is added to each well, and the radioactivity is determined by liquid scintillation counting. […]

## CC1=C(/C=C/C(C)=C/C=C/C(C)=C/C(=O)O)C(C)(C)CCC1 [ATRA, all-trans-retinoic acid]
SNORF25 receptor [1]
  Emax of cAMP response: 200–300%
SNORF25 receptor [2]
  IP release: not IP release
